Where “and” joins values, the source holds several entries; their conditions need not be identical. Equal entries are not always repeated.
Experiment: Solution stability test (HPLC) of UDCA, branched chained amino acids and maltodextrin solution, Example IV
Assay type: physicochemical
Protocol: The stability tests were conducted on three different aqueous solution systems: […]. A bile acid and a high molecular weight aqueous soluble starch conversion product were combined in aqueous solution according to Example I, with results as shown in Tables 1A and 1B. • 2. Mixed bile acids and high molecular weight aqueous soluble starch conversion products were combined in aqueous solution according to Example II, with results as shown in Table 2. • 3. Bile acids, high molecular weight aqueous soluble starch conversion products and branched chained amino acids (e.g. leucine, isoleucine, valine, or other amino acid with a branched side chain) were combined in aqueous solution according to Example IV, with results as shown in Tables 3A through 3F. The stability tests were performed with HPLC and microscope light at various pH conditions under the normal and accelerated conditions. Accelerated conditions for testing pharmaceutical compositions have been described (Remington, The Science and Practice of Pharmacy, 19th ed., p. 640). […] Thus, the formulations of the examples are suitable for preparing a commercial liquid dosage form. […] Some formulations remain stable for over 2 years. Moreover, the solution stability tests were conducted on the aqueous solution dosage forms comprising the mixture of aqueous soluble UDCA, branched chained amino acid (leucine, isoleucine, valine) and maltodextrin according to example IV as a typical example of the solution dosage forms in which bile acid as a therapeutically active agent, as an adjuvant or carrier, pharmaceutically active agent, or enhancer of solubility, and high molecular weight aqueous soluble starch conversion products or soluble non-starch polysaccharides are dissolved. According to the test results, there is no discoloration, no clarity changes, and no precipitation. […] In the tables, the concentration of the indicated bile acid salt for each of the three numbered trials and the average thereof is reported on each line. The percentage indicates the relative concentration of the bile acid salt after incubation for a certain amount of time in comparison with the initial concentration. 85 mL of the aqueous solution in which soluble UDCA is dissolved was prepared, and then maltodextrin was added into the clear solution. Into the resulting clear solution, branched amino acids were added with adjusting the pH (4–7) with agitation and then sweetener, preservatives, and flavoring agent were added. Purified water was added to adjust the total volume to be 100 mL. Tables 3A to 3F show stability test results over time of formulation prepared with amino acids according to Example IV. All stability tests were conducted at 50° C. Stability test results at pH 1 (Table 3A), pH 3 (Table 3B), pH 5 (Table 3C), pH 7 (Table 3D), pH 9 (Table 3E), and pH 10 (Table 3F) are shown.

CC[C@H](C)[C@H](N)C(=O)O [Ile, isoleucine]
Percentage of day 0 concentration (Table 3A: pH1, 50° C., day 0): 100.0% | concentration by HPLC, Average (Table 3A: pH1, 50° C., day 0): 0.248 | concentration by HPLC, trials #1-#3 (Table 3A: pH1, 50° C., day 0): 0.261 and 0.236 and 0.249 | Percentage of day 0 concentration (Table 3A: pH1, 50° C., day 1): 105.0% | concentration by HPLC, Average (Table 3A: pH1, 50° C., day 1): 0.261 | concentration by HPLC, trials #1-#3 (Table 3A: pH1, 50° C., day 1): 0.256 and 0.275 and 0.251 | Percentage of day 0 concentration (Table 3A: pH1, 50° C., day 2): 104.9% | concentration by HPLC, Average (Table 3A: pH1, 50° C., day 2): 0.260 | concentration by HPLC, trials #1-#3 (Table 3A: pH1, 50° C., day 2): 0.268 and 0.263 and 0.251 | Percentage of day 0 concentration (Table 3A: pH1, 50° C., day 6): 114.6% | concentration by HPLC, Average (Table 3A: pH1, 50° C., day 6): 0.285 | concentration by HPLC, trials #1-#3 (Table 3A: pH1, 50° C., day 6): 0.295 and 0.268 and 0.291 | Percentage of day 0 concentration (Table 3A: pH1, 50° C., day 7): 103.4% | concentration by HPLC, Average (Table 3A: pH1, 50° C., day 7): 0.257 | concentration by HPLC, trials #1-#3 (Table 3A: pH1, 50° C., day 7): 0.249 and 0.254 and 0.267 | Percentage of day 0 concentration (Table 3A: pH1, 50° C., day 8): 98.8% | concentration by HPLC, Average (Table 3A: pH1, 50° C., day 8): 0.245 | concentration by HPLC, trials #1-#3 (Table 3A: pH1, 50° C., day 8): 0.253 and 0.243 and 0.240 | Percentage of day 0 concentration (Table 3A: pH1, 50° C., day 9): 106.6% | concentration by HPLC, Average (Table 3A: pH1, 50° C., day 9): 0.265 | concentration by HPLC, trials #1-#3 (Table 3A: pH1, 50° C., day 9): 0.263 and 0.268 | Percentage of day 0 concentration (Table 3B: pH 3, 50° C., day 0): 100.0% | concentration by HPLC, Average (Table 3B: pH 3, 50° C., day 0): 0.256 | concentration by HPLC, trials #1-#3 (Table 3B: pH 3, 50° C., day 0): 0.261 and 0.254 and 0.253 | Percentage of day 0 concentration (Table 3B: pH 3, 50° C., day 1): 103.3% | concentration by HPLC, Average (Table 3B: pH 3, 50° C., day 1): 0.265 | concentration by HPLC, trials #1-#3 (Table 3B: pH 3, 50° C., day 1): 0.266 and 0.268 and 0.261 | Percentage of day 0 concentration (Table 3B: pH 3, 50° C., day 2): 99.3% | concentration by HPLC, Average (Table 3B: pH 3, 50° C., day 2): 0.254 | concentration by HPLC, trials #1-#3 (Table 3B: pH 3, 50° C., day 2): 0.273 and 0.243 and 0.247 | Percentage of day 0 concentration (Table 3B: pH 3, 50° C., day 6): 117.4% | concentration by HPLC, Average (Table 3B: pH 3, 50° C., day 6): 0.301 | concentration by HPLC, trials #1-#3 (Table 3B: pH 3, 50° C., day 6): 0.296 and 0.306 and 0.300 | Percentage of day 0 concentration (Table 3B: pH 3, 50° C., day 7): 100.0% | concentration by HPLC, Average (Table 3B: pH 3, 50° C., day 7): 0.256 | concentration by HPLC, trials #1-#3 (Table 3B: pH 3, 50° C., day 7): 0.247 and 0.265 and 0.257 | Percentage of day 0 concentration (Table 3B: pH 3, 50° C., day 8): 96.7% | concentration by HPLC, Average (Table 3B: pH 3, 50° C., day 8): 0.248 | concentration by HPLC, trials #1-#3 (Table 3B: pH 3, 50° C., day 8): 0.250 and 0.247 | Percentage of day 0 concentration (Table 3B: pH 3, 50° C., day 13): 100.9% | concentration by HPLC, Average (Table 3B: pH 3, 50° C., day 13): 0.258 | concentration by HPLC, trials #1-#3 (Table 3B: pH 3, 50° C., day 13): 0.285 and 0.240 and 0.250 | Percentage of day 0 concentration (Table 3C: pH 5, 50° C., day 0): 100.0% | concentration by HPLC, Average (Table 3C: pH 5, 50° C., day 0): 0.279 | concentration by HPLC, trials #1-#3 (Table 3C: pH 5, 50° C., day 0): 0.285 and 0.258 and 0.295 | Percentage of day 0 concentration (Table 3C: pH 5, 50° C., day 3): 99.0% | concentration by HPLC, Average (Table 3C: pH 5, 50° C., day 3): 0.277 | concentration by HPLC, trials #1-#3 (Table 3C: pH 5, 50° C., day 3): 0.280 and 0.275 | Percentage of day 0 concentration (Table 3C: pH 5, 50° C., day 6): 98.7% | concentration by HPLC, Average (Table 3C: pH 5, 50° C., day 6): 0.276 | concentration by HPLC, trials #1-#3 (Table 3C: pH 5, 50° C., day 6): 0.285 and 0.273 and 0.270 | Percentage of day 0 concentration (Table 3C: pH 5, 50° C., day 10): 98.4% | concentration by HPLC, Average (Table 3C: pH 5, 50° C., day 10): 0.275 | concentration by HPLC, trials #1-#3 (Table 3C: pH 5, 50° C., day 10): 0.274 and 0.276 | Percentage of day 0 concentration (Table 3C: pH 5, 50° C., day 13): 100.0% | concentration by HPLC, Average (Table 3C: pH 5, 50° C., day 13): 0.279 | concentration by HPLC, trials #1-#3 (Table 3C: pH 5, 50° C., day 13): 0.273 and 0.287 and 0.278 | Percentage of day 0 concentration (Table 3C: pH 5, 50° C., day 17): 98.3% | concentration by HPLC, Average (Table 3C: pH 5, 50° C., day 17): 0.275 | concentration by HPLC, trials #1-#3 (Table 3C: pH 5, 50° C., day 17): 0.278 and 0.276 and 0.270 | Percentage of day 0 concentration (Table 3C: pH 5, 50° C., day 20): 95.0% | concentration by HPLC, Average (Table 3C: pH 5, 50° C., day 20): 0.266 | concentration by HPLC, trials #1-#3 (Table 3C: pH 5, 50° C., day 20): 0.261 and 0.275 | Percentage of day 0 concentration (Table 3C: pH 5, 50° C., day 24): 99.3% | concentration by HPLC, Average (Table 3C: pH 5, 50° C., day 24): 0.277 | concentration by HPLC, trials #1-#3 (Table 3C: pH 5, 50° C., day 24): 0.267 and 0.274 and 0.292 | Percentage of day 0 concentration (Table 3D: pH 7, 50° C., day 0): 100.0% | concentration by HPLC, Average (Table 3D: pH 7, 50° C., day 0): 0.289 | concentration by HPLC, trials #1-#3 (Table 3D: pH 7, 50° C., day 0): 0.296 and 0.289 and 0.281 | Percentage of day 0 concentration (Table 3D: pH 7, 50° C., day 5): 99.7% | concentration by HPLC, Average (Table 3D: pH 7, 50° C., day 5): 0.288 | concentration by HPLC, trials #1-#3 (Table 3D: pH 7, 50° C., day 5): 0.300 and 0.282 and 0.281 | Percentage of day 0 concentration (Table 3D: pH 7, 50° C., day 8): 95.5% | concentration by HPLC, Average (Table 3D: pH 7, 50° C., day 8): 0.276 | concentration by HPLC, trials #1-#3 (Table 3D: pH 7, 50° C., day 8): 0.277 and 0.282 and 0.268 | Percentage of day 0 concentration (Table 3D: pH 7, 50° C., day 12): 95.8% | concentration by HPLC, Average (Table 3D: pH 7, 50° C., day 12): 0.277 | concentration by HPLC, trials #1-#3 (Table 3D: pH 7, 50° C., day 12): 0.273 and 0.278 | Percentage of day 0 concentration (Table 3D: pH 7, 50° C., day 15): 93.5% | concentration by HPLC, Average (Table 3D: pH 7, 50° C., day 15): 0.270 | concentration by HPLC, trials #1-#3 (Table 3D: pH 7, 50° C., day 15): 0.271 and 0.273 and 0.266 | Percentage of day 0 concentration (Table 3D: pH 7, 50° C., day 19): 99.3% | concentration by HPLC, Average (Table 3D: pH 7, 50° C., day 19): 0.287 | concentration by HPLC, trials #1-#3 (Table 3D: pH 7, 50° C., day 19): 0.294 and 0.285 and 0.281 | Percentage of day 0 concentration (Table 3E: pH 9, 50° C., day 0): 100.0% | concentration by HPLC, Average (Table 3E: pH 9, 50° C., day 0): 0.286 | concentration by HPLC, trials #1-#3 (Table 3E: pH 9, 50° C., day 0): 0.291 and 0.286 and 0.282 | Percentage of day 0 concentration (Table 3E: pH 9, 50° C., day 3): 95.6% | concentration by HPLC, Average (Table 3E: pH 9, 50° C., day 3): 0.273 | concentration by HPLC, trials #1-#3 (Table 3E: pH 9, 50° C., day 3): 0.266 and 0.273 and 0.282 | Percentage of day 0 concentration (Table 3E: pH 9, 50° C., day 6): 95.9% | concentration by HPLC, Average (Table 3E: pH 9, 50° C., day 6): 0.274 | concentration by HPLC, trials #1-#3 (Table 3E: pH 9, 50° C., day 6): 0.277 and 0.274 and 0.272 | Percentage of day 0 concentration (Table 3E: pH 9, 50° C., day 10): 91.2% | concentration by HPLC, Average (Table 3E: pH 9, 50° C., day 10): 0.261 | concentration by HPLC, trials #1-#3 (Table 3E: pH 9, 50° C., day 10): 0.243 and 0.245 and 0.295 | Percentage of day 0 concentration (Table 3E: pH 9, 50° C., day 13): 87.4% | concentration by HPLC, Average (Table 3E: pH 9, 50° C., day 13): 0.250 | concentration by HPLC, trials #1-#3 (Table 3E: pH 9, 50° C., day 13): 0.246 and 0.269 and 0.236 | Percentage of day 0 concentration (Table 3E: pH 9, 50° C., day 17): 93.1% | concentration by HPLC, Average (Table 3E: pH 9, 50° C., day 17): 0.267 | concentration by HPLC, trials #1-#3 (Table 3E: pH 9, 50° C., day 17): 0.275 and 0.280 and 0.245 | Percentage of day 0 concentration (Table 3F: pH 10, 50° C., day 0): 100.0% | concentration by HPLC, Average (Table 3F: pH 10, 50° C., day 0): 0.287 | concentration by HPLC, trials #1-#3 (Table 3F: pH 10, 50° C., day 0): 0.292 | Percentage of day 0 concentration (Table 3F: pH 10, 50° C., day 2): 84.7% | concentration by HPLC, Average (Table 3F: pH 10, 50° C., day 2): 0.243 | Percentage of day 0 concentration (Table 3F: pH 10, 50° C., day 5): 76.0% | concentration by HPLC, Average (Table 3F: pH 10, 50° C., day 5): 0.218 | Percentage of day 0 concentration (Table 3F: pH 10, 50° C., day 7): 74.5% | concentration by HPLC, Average (Table 3F: pH 10, 50° C., day 7): 0.214 | Percentage of day 0 concentration (Table 3F: pH 10, 50° C., day 9): 70.2% | concentration by HPLC, Average (Table 3F: pH 10, 50° C., day 9): 0.202 | concentration by HPLC, trials #1-#3 (Table 3F: pH 10, 50° C., day 9): 0.206 and 0.192 and 0.207
